Laboratory results from ChEMBL document CHEMBL4308841, “Synthesis, in vitro antiproliferative activity, and kinase inhibitory effects of pyrazole-containing diarylureas and diarylamides” (Eur J Med Chem, 2018).

How the values were obtained:
TK-10 = experiment: Growth inhibition of human TK10 cells assessed as cell growth at 10 uM incubated for 48 hrs by sulforhodamine B assay relative to control; type: functional; settings: TK-10, 48 h, read-out: Activity
BT-549 = experiment: Growth inhibition of human BT549 cells assessed as cell growth at 10 uM incubated for 48 hrs by sulforhodamine B assay relative to control; type: functional; settings: BT-549, 48 h, read-out: Activity
SNB-19 = experiment: Growth inhibition of human SNB19 cells assessed as cell growth at 10 uM incubated for 48 hrs by sulforhodamine B assay relative to control; type: functional; settings: SNB-19, 48 h, read-out: Activity
HOP-62 = experiment: Growth inhibition of human HOP62 cells assessed as cell growth at 10 uM incubated for 48 hrs by sulforhodamine B assay relative to control; type: functional; settings: HOP-62, 48 h, read-out: Activity
M14 = experiment: Growth inhibition of human M14 cells assessed as cell growth at 10 uM incubated for 48 hrs by sulforhodamine B assay relative to control; type: functional; settings: M14, 48 h, read-out: Activity
RPMI-8226 = experiment: Growth inhibition of human RPMI8226 cells assessed as cell growth at 10 uM incubated for 48 hrs by sulforhodamine B assay relative to control; type: functional; settings: RPMI-8226, 48 h, read-out: Activity
NCI-H23 [1] = experiment: Growth inhibition of human NCI-H23 cells assessed as cell growth at 10 uM incubated for 48 hrs by sulforhodamine B assay relative to control; type: functional; settings: NCI-H23, 48 h, read-out: Activity
Malme-3M = experiment: Growth inhibition of human MALME-3M cells assessed as cell growth at 10 uM incubated for 48 hrs by sulforhodamine B assay relative to control; type: functional; settings: read-out: Activity
SF-539 = experiment: Growth inhibition of human SF539 cells assessed as cell growth at 10 uM incubated for 48 hrs by sulforhodamine B assay relative to control; type: functional; settings: SF-539, 48 h, read-out: Activity
K562 = experiment: Growth inhibition of human K562 cells assessed as cell growth at 10 uM incubated for 48 hrs by sulforhodamine B assay relative to control; type: functional; settings: K562, 48 h, read-out: Activity
KM12 = experiment: Growth inhibition of human KM12 cells assessed as cell growth at 10 uM incubated for 48 hrs by sulforhodamine B assay relative to control; type: functional; settings: KM12, 48 h, read-out: Activity
NCI/ADR-RES = experiment: Growth inhibition of human NCI/ADR-RES cells assessed as cell growth at 10 uM incubated for 48 hrs by sulforhodamine B assay relative to control; type: functional; settings: read-out: Activity
HCC 2998 = experiment: Growth inhibition of human HCC2998 cells assessed as cell growth at 10 uM incubated for 48 hrs by sulforhodamine B assay relative to control; type: functional; settings: HCC 2998, 48 h, read-out: Activity
MDA-MB-231 = experiment: Growth inhibition of human MDA-MB-231 cells assessed as cell growth at 10 uM incubated for 48 hrs by sulforhodamine B assay relative to control; type: functional; settings: MDA-MB-231, 48 h, read-out: Activity
OVCAR-3 = experiment: Growth inhibition of human OVCAR3 cells assessed as cell growth at 10 uM incubated for 48 hrs by sulforhodamine B assay relative to control; type: functional; settings: OVCAR-3, 48 h, read-out: Activity
IGROV-1 = experiment: Growth inhibition of human IGROV1 cells assessed as cell growth at 10 uM incubated for 48 hrs by sulforhodamine B assay relative to control; type: functional; settings: IGROV-1, 48 h, read-out: Activity
RXF 393 = experiment: Growth inhibition of human RXF393 cells assessed as cell growth at 10 uM incubated for 48 hrs by sulforhodamine B assay relative to control; type: functional; settings: RXF 393, 48 h, read-out: Activity
MCF7 = experiment: Growth inhibition of human MCF7 cells assessed as cell growth at 10 uM incubated for 48 hrs by sulforhodamine B assay relative to control; type: functional; settings: MCF7, 48 h, read-out: Activity
NCI-H322M = experiment: Growth inhibition of human NCI-H322M cells assessed as cell growth at 10 uM incubated for 48 hrs by sulforhodamine B assay relative to control; type: functional; settings: read-out: Activity
OVCAR-8 = experiment: Growth inhibition of human OVCAR8 cells assessed as cell growth at 10 uM incubated for 48 hrs by sulforhodamine B assay relative to control; type: functional; settings: OVCAR-8, 48 h, read-out: Activity
MDA-MB-468 = experiment: Growth inhibition of human MDA-MB-468 cells assessed as cell growth at 10 uM incubated for 48 hrs by sulforhodamine B assay relative to control; type: functional; settings: MDA-MB-468, 48 h, read-out: Activity
SW-620 = experiment: Growth inhibition of human SW620 cells assessed as cell growth at 10 uM incubated for 48 hrs by sulforhodamine B assay relative to control; type: functional; settings: SW-620, 48 h, read-out: Activity
SF-268 = experiment: Growth inhibition of human SF268 cells assessed as cell growth at 100 uM incubated for 48 hrs by sulforhodamine B assay relative to control; type: functional; settings: SF-268, 48 h, read-out: Activity
NCI-H23 [2] = experiment: Growth inhibition of human NCI-H23 cells assessed as cell growth at 100 uM incubated for 48 hrs by sulforhodamine B assay relative to control; type: functional; settings: NCI-H23, 48 h, read-out: Activity
MOLT-4 [3] = experiment: Growth inhibition of human MOLT4 cells assessed as cell growth at 0.1 uM incubated for 48 hrs by sulforhodamine B assay relative to control; type: functional; settings: MOLT-4, 48 h, read-out: Activity
OVCAR-5 [4] = experiment: Growth inhibition of human OVCAR5 cells assessed as cell growth at 1 uM incubated for 48 hrs by sulforhodamine B assay relative to control; type: functional; settings: OVCAR-5, 48 h, read-out: Activity
UACC-257 = experiment: Growth inhibition of human UACC257 cells assessed as cell growth at 1 uM incubated for 48 hrs by sulforhodamine B assay relative to control; type: functional; settings: UACC-257, 48 h, read-out: Activity
OVCAR-5 [5] = experiment: Growth inhibition of human OVCAR5 cells incubated for 48 hrs by sulforhodamine B assay; type: functional, cell-based; settings: OVCAR-5, 48 h
NCI-H460 = experiment: Growth inhibition of human NCI-H460 cells assessed as cell growth at 0.01 uM incubated for 48 hrs by sulforhodamine B assay relative to control; type: functional; settings: NCI-H460, 48 h, read-out: Activity
MOLT-4 [6] = experiment: Growth inhibition of human MOLT4 cells assessed as cell growth at 0.01 uM incubated for 48 hrs by sulforhodamine B assay relative to control; type: functional; settings: MOLT-4, 48 h, read-out: Activity
UO-31 = experiment: Growth inhibition of human UO31 cells incubated for 48 hrs by sulforhodamine B assay; type: functional, cell-based; settings: UO-31, 48 h
[7] = read-out: LC50 (the source's name)
[8] = read-out: pLC50 (the source's name) (converted)

For `COc1cc(Cl)cc(-c2nn(-c3cccc(NC(=O)c4ccc(Cl)c(Cl)c4)c3)cc2-c2ccncc2)c1`, the growth at 10 µM (TK-10) was 104%, the growth at 10 µM (BT-549) was 85.2% and the growth at 10 µM (SNB-19) was 71.5%. The growth at 10 µM (HOP-62) was 105%, the growth at 10 µM (M14) was 68.9% and the growth at 10 µM (RPMI-8226) was 46%. The growth at 10 µM (NCI-H23 [1]) was 75.2%, the growth at 10 µM (Malme-3M) was 96.4% and the growth at 10 µM (SF-539) was 74.5%. It also gave a growth at 10 µM (K562) of 46.4%, a growth at 10 µM (KM12) of 62.3% and a growth at 10 µM (NCI/ADR-RES) of 61.4%. It also gave a growth at 10 µM (HCC 2998) of 77.8%, a growth at 10 µM (MDA-MB-231) of 33.9% and a growth at 10 µM (OVCAR-3) of 53.4%. The growth at 10 µM (IGROV-1) was 71.6%, the growth at 10 µM (RXF 393) was 59.2% and the growth at 10 µM (MCF7) was 57.7%. The growth at 10 µM (NCI-H322M) was 84.5%, the growth at 10 µM (OVCAR-8) was 58.4% and the growth at 10 µM (MDA-MB-468) was 54.6%. The growth at 10 µM (SW-620) was 84.2%.

`COc1cc(Cl)cc(-c2nn(-c3cccc(NC(=O)Nc4ccc(Cl)c(Cl)c4)c3)cc2-c2ccncc2)c1` showed a growth at 10 µM (TK-10) of 19.8%, a growth at 10 µM (BT-549) of 29.4% and a growth at 100 µM (SF-268) of 11%. For the same molecule, the growth at 10 µM (SNB-19) was 17.8%, the growth at 100 µM (NCI-H23 [2]) was -20% and the growth at 0.1 µM (MOLT-4 [3]) was 88%. The growth at 10 µM (HOP-62) was 15.7%, the growth at 10 µM (M14) was 18.7% and the growth at 10 µM (RPMI-8226) was -4.44%. For the same molecule, the growth at 1 µM (OVCAR-5 [4]) was 87%, the growth at 10 µM (NCI-H23 [1]) was 5.72% and the growth at 1 µM (UACC-257) was 80%. It also gave a growth at 10 µM (Malme-3M) of -19.8%, a growth at 10 µM (SF-539) of 20.9% and a growth at 10 µM (K562) of 10%. For the same molecule, the GI50 (OVCAR-5 [5]; read-out: GI50) was 4.3 µM, the CC50 (OVCAR-5 [5]; [7]) was > 100 µM and the TGI (OVCAR-5 [5]; read-out: TGI) was > 100 µM. The GI50 (OVCAR-5 [5]; read-out: pGI50 (converted)) was 4.37 µM, the CC50 (OVCAR-5 [5]; [8]) was > 100 µM and the TGI (OVCAR-5 [5]; read-out: pTGI (converted)) was > 100 µM. For the same molecule, the growth at 10 µM (KM12) was 14.3%, the growth at 10 µM (NCI/ADR-RES) was 8.59% and the growth at 10 µM (HCC 2998) was 26.7%. It also gave a growth at 10 µM (MDA-MB-231) of -21%, a growth at 10 µM (OVCAR-3) of 4.11% and a growth at 10 µM (IGROV-1) of 36.7%. For the same molecule, the growth at 10 µM (RXF 393) was 4.46%, the growth at 10 µM (MCF7) was 4.66% and the growth at 10 µM (NCI-H322M) was 32.3%. It also gave a growth at 10 µM (OVCAR-8) of 1.93%, a growth at 10 µM (MDA-MB-468) of 0.72% and a growth at 0.01 µM (NCI-H460) of 100%. For the same molecule, the growth at 0.01 µM (MOLT-4 [6]) was 99%, the IC50 (UO-31) was 1.89 µM and the GI50 (UO-31; read-out: GI50) was 1.59 µM. For the same molecule, the CC50 (UO-31; [7]) was > 100 µM, the TGI (UO-31; read-out: TGI) was 15.2 µM and the GI50 (UO-31; read-out: pGI50 (converted)) was 1.91 µM. The CC50 (UO-31; [8]) was > 100 µM, the TGI (UO-31; read-out: pTGI (converted)) was 18.2 µM and the growth at 10 µM (SW-620) was 13.3%.

`COc1cc(Cl)cc(-c2nn(-c3cccc(NC(=O)c4cc(C(F)(F)F)cc(C(F)(F)F)c4)c3)cc2-c2ccncc2)c1` gave a growth at 10 µM (BT-549) of 96.8%, a growth at 10 µM (SNB-19) of 86.4% and a growth at 10 µM (HOP-62) of 103%. It also gave a growth at 10 µM (M14) of 67.3%, a growth at 10 µM (RPMI-8226) of 43.6% and a growth at 10 µM (NCI-H23 [1]) of 72.1%. It also gave a growth at 10 µM (Malme-3M) of 104%, a growth at 10 µM (SF-539) of 80% and a growth at 10 µM (K562) of 38%. For the same molecule, the growth at 10 µM (KM12) was 55.5%, the growth at 10 µM (NCI/ADR-RES) was 67.8% and the growth at 10 µM (HCC 2998) was 78.3%. The growth at 10 µM (MDA-MB-231) was 56.7%, the growth at 10 µM (OVCAR-3) was 25.5% and the growth at 10 µM (IGROV-1) was 100%. It also gave a growth at 10 µM (RXF 393) of 67.7%, a growth at 10 µM (MCF7) of 57.8% and a growth at 10 µM (NCI-H322M) of 80.3%. The growth at 10 µM (OVCAR-8) was 55.4%, the growth at 10 µM (MDA-MB-468) was 46.5% and the growth at 10 µM (SW-620) was 86.2%.
